# Laboratory results as given in ChEMBL document CHEMBL3352022, “Preparation and biological evaluation of 1'-cyano-2'-C-methyl pyrimidine nucleosides as HCV NS5B polymerase inhibitors” (Bioorg Med Chem Lett, 2014).
# Tests used:
# [1] = tested on: Hepatitis C virus; assay: Antiviral activity against HCV1b assessed as inhibition of viral replication by cell based 384 well format assay; assay type: functional, Hepacivirus hominis; conditions: genotype 1b
# [2] = tested on: Hepatitis C virus; assay: Antiviral activity against HCV1a assessed as inhibition of viral replication by cell based 384 well format assay; assay type: functional, Hepacivirus hominis; conditions: subtype 1a
# [3] = Inhibition of HCV1b NS5B polymerase; parameters: species or system Hepatitis C virus subtype 1b
# [4] = tested on: Hepatitis C virus; assay: Antiviral activity against HCV1b in Rluc cells assessed as TP level per million cells after 24 hrs by liquid chromatography; assay type: functional, Hepacivirus hominis, genotype 1b
IC50 [3] [nM],Compound,EC50 [1] [nM],EC50 [2] [nM],Activity [4] [pmol]
–,C[C@@]1(O)[C@H](O)[C@@H](CO)O[C@@]1(C#N)c1ccc2c(N)ncnn12,> 89000,> 89000,–
17700,C[C@@]1(O)[C@H](O)[C@@H](CO)O[C@@]1(C#N)n1ccc(N)nc1=O,> 89000,76000,–
27000,C[C@@]1(O)[C@H](O)[C@@H](CO)O[C@@]1(C#N)n1ccc(=O)[nH]c1=O,> 89000,> 89000,–
–,CC(C)OC(=O)[C@H](C)N[P@](=O)(OC[C@H]1O[C@@](C#N)(n2ccc(N)nc2=O)[C@](C)(O)[C@@H]1OC(=O)C(C)C)Oc1ccccc1,600,250,–
–,CC(C)OC(=O)[C@H](C)N[P@+]([O-])(OC[C@H]1O[C@@](C#N)(c2ccc3c(N)ncnn23)[C@](C)(O)[C@@H]1OC(=O)C(C)C)Oc1ccccc1 [GS-6620],240,94,40

Compound,IC50 [3] [nM],EC50 [1] [nM],EC50 [2] [nM],Activity [4] [pmol]
C[C@@]1(O)[C@H](O)[C@@H](CO)O[C@H]1n1ccc(N)nc1=O,1670,2800,2500,–
